Experimental data taken from US9957264B2 (Merck Sharp & Dohme Corp., priority 2013, dated 2018).

molecular target: JAK1 (recombinant purified GST-tagged catalytic domain) (Homo sapiens (Human), UniProt P23458); test: Jak Biochemical HTRF Assay (JAK1); conditions: [ATP] 31.8 μM
Method: Jak Biochemical HTRF Assay Protocol
The ability of compounds to inhibit the activity of JAK1, JAK2, JAK3, and Tyk2 was measured using a recombinant purified GST-tagged catalytic domain for each enzyme (Invitrogen JAK1 #M4290, JAK2 #M4290, JAK3 #M4290, Tyk2 #M4290) in an HTRF format biochemical assay. The reactions employed a common peptide substrate, LCB-[…]-NH2 (in-house). The basic assay protocol is as follows: First, 250 nL of diluted compounds in DMSO were dispensed into the wells of a dry 384-well Black plate (Greiner #781076) using a Labcyte Echo 555 acoustic dispenser. Subsequent reagent additions employed an Agilent Bravo. […] After equilibration, 2 μL of 10×ATP in 1× assay buffer was added to initiate the kinase reaction and the plates were shaken and then incubated at room temperature for 120 minutes. At the end of the incubation, 20 μL of 2× stop buffer (streptavidin-Dylight 650 (Thermo #84547B/100 mL), Eu-tagged pY20 antibody (Perkin Elmer #AD0067), EDTA, HEPES, and Triton) was added to quench the reaction. Plates were shaken and centrifuged and then incubated 60 minutes at room temperature and then read on a Perkin Elmer Envision (λex=337 nm, λem=665 and 615 nm, TRF delay time=20 μs). HTRF signal=10,000*665 nm reading/615 nm reading. After normalization to untreated controls, the percent inhibition of the HTRF signal at each compound concentration was calculated. The plot of percent inhibition versus the log of compound concentration was fit with a 4-parameter dose response equation to calculate IC50 values.
Final reaction conditions were:
Examples of the instant invention were evaluated in JAK1 and JAK2 in vitro binding assays as described above. The following table tabulates the JAK1 IC50 values and JAK2 IC50 values disclosed for the instant invention.

Sequence of JAK1 (recombinant purified GST-tagged catalytic domain) (P23458 875-1153): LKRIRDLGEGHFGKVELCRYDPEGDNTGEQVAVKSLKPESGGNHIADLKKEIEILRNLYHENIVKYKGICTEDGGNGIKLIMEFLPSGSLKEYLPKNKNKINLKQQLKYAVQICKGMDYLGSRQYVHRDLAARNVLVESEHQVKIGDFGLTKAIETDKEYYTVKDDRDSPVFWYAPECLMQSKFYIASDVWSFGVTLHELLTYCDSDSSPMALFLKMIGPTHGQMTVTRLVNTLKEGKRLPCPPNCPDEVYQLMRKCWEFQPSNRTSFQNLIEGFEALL

| Compound | IC50 |
| --- | --- |
| CC1(C)Cc2cc(Nc3nn([C@]4(CC#N)CCCOC4)c4cc[nH]c(=O)c34)ccc2C1(O)C(F)(F)F (single isomer, unassigned) [Example 5-119, 2-((S)-3-(3-(((S or R)-1-hydroxy-2,2-dimethyl-1-(trifluoromethyl)-2,3-dihydro-1H-inden-5-yl)amino)-4-oxo-4,5-dihydro-1H-pyrazolo[4,3-c]pyridin-1-yl)tetrahydro-2H-pyran-3-yl)acetonitrile] | 0.15 nM |
| CN(C)S(=O)(=O)c1ccc(Nc2nn(C3(CC#N)CCN(C(=O)OC4CCOCC4)CC3)c3cc[nH]c(=O)c23)cc1 [Example 11-7, tetrahydro-2H-pyran-4-yl 4-(cyanomethyl)-4-(3-((4-(N,N-dimethylsulfamoyl)phenyl)amino)-4-oxo-4,5-dihydro-1H-pyrazolo[4,3-c]pyridin-1-yl)piperidine-1-carboxylate] | 0.18 nM |
| CC(C)(C)N1Cc2cc(Nc3nn(C4(CC#N)CCCC4)c4cc[nH]c(=O)c34)ccc2S1(=O)=O [Example 5-121, 2-(1-(3-((2-(tert-butyl)-1,1-dioxido-2,3-dihydrobenzo[d]isothiazol-5-yl)amino)-4-oxo-4,5-dihydro-1H-pyrazolo[4,3-c]pyridin-1-yl)cyclopentyl)acetonitrile] | 0.04 nM |
| CN(C)S(=O)(=O)c1ccc(Nc2nn([C@@]3(CC#N)CCCC[C@H]3F)c3cc[nH]c(=O)c23)cc1 [Example 5-84] | < 0.02 nM |
| CC(C)S(=N)(=O)c1ccc(Nc2nn([C@]3(CC#N)CC[C@@H](C(=O)OC(C)(C)C)OC3)c3cc[nH]c(=O)c23)cc1 (single isomer, unassigned) [Example 5-230, (2S,5S)-tert-butyl 5-(cyanomethyl)-5-(4-oxo-3-((4-(propan-2-yl-(S or R)-sulfonimidoyl)phenyl)amino)-4,5-dihydro-1H-pyrazolo[4,3-c]pyridin-1-yl)tetrahydro-2H-pyran-2-carboxylate] | 0.12 nM |
| CC(C)(C)OC(=O)N1CCC(CC#N)(n2nc(Nc3cccc(S(C)(=O)=O)c3)c3c(=O)[nH]ccc32)CC1 [Example 5-13, tert-butyl 4-(cyanomethyl)-4-(3-{[3-(methylsulfonyl)phenyl]amino}-4-oxo-4,5-dihydro-1H-pyrazolo[4,3-c]pyridin-1-yl)piperidine-1-carboxylate] | 0.5 nM |
| CC(C)(C)OC(=O)[C@@H]1CC[C@@](CC#N)(n2nc(Nc3ccc4nc(N5CCOCC5)ccc4c3)c3c(=O)[nH]ccc32)CO1 [Example 5-227, (2S,5S)-tert-butyl 5-(cyanomethyl)-5-(3-((2-morpholinoquinolin-6-yl)amino)-4-oxo-4,5-dihydro-1H-pyrazolo[4,3-c]pyridin-1-yl)tetrahydro-2H-pyran-2-carboxylate] | 0.15 nM |

Further compounds by falling IC50, results first:

| IC50 | Compound |
| --- | --- |
| 2.47 nM | COC(=O)c1ccc(Nc2nn(C3(CC#N)CN(C(=O)OC(C)(C)C)C3)c3cc[nH]c(=O)c23)cc1 [Example 4-2, tert-butyl 3-(cyanomethyl)-3-(3((4(methoxycarbonyl)phenyl)amino)-4-oxo-4,5-dihydro-1H-pyrazolo[4,3-c]pyridin-1-yl)azetidine-1-carboxylate] |
| 1.6 nM | CC(C)(C)OC(=O)[C@H]1CC[C@](CC#N)(n2nc(Nc3ccc4c(c3)CN(C(C)(C)C)S4(=O)=O)c3c(=O)[nH]ccc32)CO1 [Example 5-42, (2R,5R)-tert-butyl 5-(3-((2-(tert-butyl)-1,1-dioxido-2,3-dihydrobenzo[d]isothiazol-5-yl)amino)-4-oxo-4,5-dihydro-1H-pyrazolo[4,3-c]pyridin-1-yl)-5-(cyanomethyl)tetrahydro-2H-pyran-2-carboxylate] |
| 0.83 nM | CC(C)(C)OC(=O)[C@@H]1CC[C@@](CC#N)(n2nc(Nc3ccc(C(O)(C(C)(C)C)C(F)(F)F)cc3)c3c(=O)[nH]ccc32)CO1 (single isomer, unassigned) [Example 5-167, (2S,5S)-tert-butyl 5-(cyanomethyl)-5-(4-oxo-3-((4-((S or R)-1,1,1-trifluoro-2-hydroxy-3,3-dimethylbutan-2-yl)phenyl)amino)-4,5-dihydro-1H-pyrazolo[4,3-c]pyridin-1-yl)tetrahydro-2H-pyran-2-carboxylate] |
| 0.76 nM | CCOC(=O)C(C)(C)N(C)S(=O)(=O)c1ccc(Nc2nn(C3(CC#N)CCCC3)c3cc[nH]c(=O)c23)cc1 [Example 5-139, ethyl 2-(4-((1-(1-(cyanomethyl)cyclopentyl)-4-oxo-4,5-dihydro-1H-pyrazolo[4,3-c]pyridin-3-yl)amino)-N-methylphenylsulfonamido)-2-methylpropanoate] |
| 0.5 nM | CC(C)NS(=O)(=O)c1ccc(Nc2nn(C3(CC#N)CCCC3)c3cc[nH]c(=O)c23)cc1 [Example 5-130, 4-((1-(1-(cyanomethyl)cyclopentyl)-4-oxo-4,5-dihydro-1H-pyrazolo[4,3-c]pyridin-3-yl)amino)-N-isopropylbenzene-sulfonamide] |
| 0.29 nM | Cc1cc(Nc2nn([C@]3(CC#N)CC[C@@H](C(=O)OC(C)(C)C)OC3)c3cc[nH]c(=O)c23)ccc1C(=O)N1CCC(O)(C(F)(F)F)C1 (single isomer, unassigned) [Example 5-161, (2S,5S)-tert-butyl 5-(cyanomethyl)-5-(3-((4-((S or R)-3-hydroxy-3-(trifluoromethyl)pyrrolidine-1-carbonyl)-3-methylphenyl)amino)-4-oxo-4,5-dihydro-1H-pyrazolo[4,3-c]pyridin-1-yl)tetrahydro-2H-pyran-2-carboxylate] |
| 0.23 nM | C[C@H]1CN(C(=O)OC(C)(C)C)CC[C@]1(CC#N)n1nc(Nc2ccc(S(C)(=O)=O)cc2)c2c(=O)[nH]ccc21 (racemic) [Example 5-10, tert-butyl (3R,4S and 3S,4R)-4-(cyanomethyl)-3-methyl-4-(3-{[4-(methylsulfonyl)phenyl]amino}-4-oxo-4,5-dihydro-1H-pyrazolo[4,3-c]pyridin-1-yl)piperidine-1-carboxylate] |
| 0.2 nM | C[C@@H]1CN(C(=O)OC(C)(C)C)CC[C@]1(CC#N)n1nc(Nc2ccc(S(C)(=O)=O)cc2)c2c(=O)[nH]ccc21 (racemic) [Example 5-11, tert-butyl (3S,4S and 3R,4R)-4-(cyanomethyl)-3-methyl-4-(3-{[4-(methylsulfonyl)phenyl]amino}-4-oxo-4,5-dihydro-1H-pyrazolo[4,3-c]pyridin-1-yl)piperidine-1-carboxylate] |
| 0.2 nM | CN(C)S(=O)(=O)c1ccc(Nc2nn(C3(CC#N)CCN(Cc4ccc(C#N)cc4)CC3)c3cc[nH]c(=O)c23)cc1 [Example 8-5] |
| 0.17 nM | CS(=O)(=O)c1ccc(Nc2nn(C3(CC#N)CCN(c4ccc(I)cn4)CC3)c3cc[nH]c(=O)c23)cc1 [Example 15-7, 2-(1-(5-iodopyridin-2-yl)-4-(3-((4-(methylsulfonyl)phenyl)amino)-4-oxo-4,5-dihydro-1H-pyrazolo[4,3-c]pyridin-1-yl)piperidin-4-yl)acetonitrile] |
| 0.13 nM | Cc1cc(Nc2nn([C@]3(CC#N)CC[C@@H](C(=O)OC(C)(C)C)OC3)c3cc[nH]c(=O)c23)ccc1C(=O)N1CCSCC1 [Example 20-6, (2S,5S)-tert-butyl 5-(cyanomethyl)-5-(3-((3-methyl-4-(thiomorpholine-4-carbonyl)phenyl)amino)-4-oxo-4,5-dihydro-1H-pyrazolo[4,3-c]pyridin-1-yl)tetrahydro-2H-pyran-2-carboxylate] |
